We go through 5 molecules from patent US5534517A, “(Aryl(alkyl)carbonyl)-heterocyclic compounds and their use in the treatment of anxiety and depression” (Adir Et Compagnie, priority 1993, dated 1996).

Assay [1] addresses T1, 5-HT2 serotoninergic receptors (Rattus norvegicus, UniProt P14842).
T1 construct: on rat frontal cortex preparations; from tissue; host or cells: rat frontal cortex
In words: in-vitro affinity for 5-HT2 serotoninergic receptors, by measuring the displacement of aminoiodoketanserin, on rat frontal cortex preparations. To be noted: read-out: IC50 (concentration inhibiting binding of the labelled ligand by 50%) (converted). As to the method:
The in-vitro affinity of the compounds of the invention was determined
for 5-HT2 serotoninergic receptors, by measuring the displacement of aminoiodoketanserin, on rat frontal cortex preparations, […]

On the set-up of assay [2]: species or system Rats or mice. To be noted: in vivo.

Like-named read-outs stand apart in the source and are kept apart here.

T1 sequence (P14842 whole entry): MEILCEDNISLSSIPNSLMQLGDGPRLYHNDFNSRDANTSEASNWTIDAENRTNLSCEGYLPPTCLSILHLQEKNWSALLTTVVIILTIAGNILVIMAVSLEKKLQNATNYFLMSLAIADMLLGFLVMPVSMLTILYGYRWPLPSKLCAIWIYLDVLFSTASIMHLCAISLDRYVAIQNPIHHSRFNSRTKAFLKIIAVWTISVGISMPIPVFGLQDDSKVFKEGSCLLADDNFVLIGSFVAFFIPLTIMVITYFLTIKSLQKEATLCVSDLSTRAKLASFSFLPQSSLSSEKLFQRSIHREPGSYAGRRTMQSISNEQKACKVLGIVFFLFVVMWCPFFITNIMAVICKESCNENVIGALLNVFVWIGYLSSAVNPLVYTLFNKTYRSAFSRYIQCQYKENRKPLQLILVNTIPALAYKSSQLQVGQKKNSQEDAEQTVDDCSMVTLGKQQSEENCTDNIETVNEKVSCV

Turning to `O=C(c1ccc(F)cc1)C1CCN(CCn2c(=O)sc3ccccc32)CC1` [Example 1, 3-{2-[4-(4-FLUOROBENZOYL)PIPERIDINO]ETHYL}BENZOTHIAZOLIN-2-ONE], in assay [1], the IC50 is 1 nM.
The same measure, in the same setting: for `O=C(c1ccc(F)cc1)C1CCN(CCn2c(=O)sc3cc(CCCCN4CCOCC4)ccc32)CC1` [Example 4, 3-{2-[4-(4-FLUOROBENZOYL)PIPERIDINO]ETHYL}-6-(4-MORPHOLINOBUTYL)BENZOTHIAZOLIN-2-ONE] the value was 0.5 nM.
In the case of `CN1CC[C@]23c4c5ccc(O)c4O[C@H]2[C@@H](O)C=C[C@H]3[C@H]1C5` [morphine, reference compound], the “inhibition of reaction time which the animal takes to lick its paws” value in assay [2] (ip) was determined as 129%.
On to `Cn1c(=O)sc2cc(CCN3CCC(C(=O)c4ccc(F)cc4)CC3)ccc21` [Example 48, 3-METHYL-6-{2-[4-(4-FLUOROBENZOYL)PIPERIDINO]ETHYL}BENZOTHIAZOLIN-2-ONE], for which the “inhibition of reaction time which the animal takes to lick its paws” value in assay [2] is 175%.
`COc1ccccc1N1CCN(CCCCc2ccc3c(c2)sc(=O)n3CCN2CCC(C(=O)c3ccc(F)cc3)CC2)CC1` [Example 3, 3-{2-[4-(4-FLUOROBENZOYL)PIPERIDINO]ETHYL}-6-(4-[4-(2-METHOXY-PHENYL)PIPERAZINYL]BUTYL}BENZOTHIAZOLIN-2-ONE]: the IC50 in assay [1] was 1 nM.
